According to ChEMBL document CHEMBL4190290, “Synthesis and antiangiogenic activity study of new hop chalcone Xanthohumol analogues” (Eur J Med Chem, 2017):
Active and inactive are the calls of the source. The calls are words filed in the database; no cut-off is given here.

Experiments:
HUVEC [1] = assay: Antimigratory activity in HUVEC at 10 uM after 6 hrs by DAPI staining based Boyden chamber method; format: functional, cell-based; details: Homo sapiens
HUVEC [2] = assay: Antiangiogenic activity in HUVEC assessed as inhibition of cell morphogenesis by measuring reduction in capillary like structure formation at 10 uM after 6 hrs by inverted microscopic method; format: functional, cell-based; details: Homo sapiens
HUVEC [3] = assay: Antiangiogenic activity in fibronectin pretreated HUVEC assessed as reduction in cell adhesion at 10 uM after 90 mins by DAPI staining based microscopic method; format: functional; details: Homo sapiens
HUVEC [4] = assay: Anti-invasive activity in HUVEC at 10 uM after 24 hrs by DAPI staining based Boyden chamber method; format: functional, cell-based; details: Homo sapiens
HUVEC [5] = assay: Cytotoxicity against HUVEC assessed as reduction in cell viability at 20 uM up to 96 hrs by MTT assay; format: cell-based; details: human
HUVEC [6] = assay: Cytotoxicity against HUVEC assessed as reduction in cell viability at 10 uM after 96 hrs by MTT assay; format: cell-based; details: human
HUVEC [7] = assay: Cytotoxicity against HUVEC assessed as induction of apoptosis at 10 uM after 24 hrs by Annexin V/7-AAD staining based flow cytometry; format: cell-based; details: human
HUVEC [8] = assay: Cytotoxicity against HUVEC assessed as reduction in cell viability up to 20 uM up to 96 hrs by MTT assay; format: cell-based; details: human

SMILES | Activity (HUVEC [1]) | Antiangiogenic activity (active/not active) (HUVEC [2]) | Activity (HUVEC [3]) | Activity (HUVEC [4]) | Activity (HUVEC [5]) | Activity (HUVEC [6]) | Activity (HUVEC [7]) | Activity (HUVEC [8])
COc1ccc(/C=C/C(=O)c2c(OC)cc(O)c(CC=C(C)C)c2O)cc1F | Active | Active | Active | inactive | – | – | – | –
COCOc1cc(OC)c(C(=O)/C=C/c2ccc(F)cc2)c(O)c1CC=C(C)C | Active | – | – | inactive | – | – | – | –
COc1ccc(/C=C/C(=O)c2c(OC)cc(O)c(CC=C(C)C)c2O)c(F)c1 | Active | Active | Active | inactive | Toxic | – | – | –
COCOc1cc(OC)c(C(=O)/C=C/c2ccc(OC)cc2F)c(OCOC)c1CC=C(C)C | Active | Active | Active | inactive | – | Toxic | – | –
COCOc1cc(OC)c(C(=O)/C=C/c2ccc([N+](=O)[O-])cc2)c(O)c1CC=C(C)C | Active | Active | Active | inactive | Toxic | – | Toxic | –
COCOc1cc(OC)c(C(=O)/C=C/c2ccc(OC)c(F)c2)c(O)c1CC=C(C)C | Active | Active | Active | inactive | – | – | – | –
COCOc1cc(OC)c(C(=O)/C=C/c2ccc(OC)cc2F)c(O)c1CC=C(C)C | – | Active | Active | inactive | – | – | – | Non-Toxic
COc1cc(O)c(CC=C(C)C)c(O)c1C(=O)/C=C/c1ccccc1F | – | Active | Active | – | – | – | – | –
COCOc1cc(OC)c(C(=O)/C=C/c2ccccc2F)c(O)c1CC=C(C)C | – | Active | Active | – | – | – | – | –
COc1cc(O)c(CC=C(C)C)c(O)c1C(=O)/C=C/c1ccc(O)cc1 [XANTHOHUMOL] | Active | Active | Active | Active | Toxic | – | – | –
COCOc1cc(OC)c(C(=O)/C=C/c2ccc(OC)c(F)c2)c(OCOC)c1CC=C(C)C | Active | Active | Active | inactive | – | Toxic | – | –
COc1cc(O)c(CC=C(C)C)c(O)c1C(=O)/C=C/c1ccc(F)cc1 | Active | Active | Active | inactive | – | – | – | –
